This passage reports inhibition and IC50 results from article PMC9389372 (RSC Advances, 2022).

Structures are written as SMILES.

What all share (assay type): biochemical
The target in one assay is T1, MAO-A (Homo sapiens, UniProt P21397).
T1 sequence (P21397 1-527): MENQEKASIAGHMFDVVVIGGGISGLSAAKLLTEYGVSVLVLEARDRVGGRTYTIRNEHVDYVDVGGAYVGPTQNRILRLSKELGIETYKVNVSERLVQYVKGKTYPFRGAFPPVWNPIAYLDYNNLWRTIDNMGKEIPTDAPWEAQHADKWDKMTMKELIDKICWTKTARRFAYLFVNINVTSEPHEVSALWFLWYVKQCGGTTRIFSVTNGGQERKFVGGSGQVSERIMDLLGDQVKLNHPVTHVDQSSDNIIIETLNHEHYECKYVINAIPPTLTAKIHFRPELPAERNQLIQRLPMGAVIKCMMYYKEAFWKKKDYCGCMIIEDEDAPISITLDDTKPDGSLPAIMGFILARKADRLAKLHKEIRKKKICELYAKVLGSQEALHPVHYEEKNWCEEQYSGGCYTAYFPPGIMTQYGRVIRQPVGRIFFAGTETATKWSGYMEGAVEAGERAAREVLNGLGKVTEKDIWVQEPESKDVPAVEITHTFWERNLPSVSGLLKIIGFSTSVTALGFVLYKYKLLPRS
Put plainly: MAO-A inhibition, in vitro fluorometric method. Conditions: for inhibition at 100 µM / inhibition at 1000 µM: read-out: MAO-A % inhibition.

The target of assay [1] is human butyrylcholinesterase (Homo sapiens, UniProt P06276). Put plainly: BChE inhibition, modified Ellman's spectrophotometric method. The conditions noted are these: for inhibition at 100 µM / inhibition at 1000 µM: read-out: BChE % inhibition.
Chain of human butyrylcholinesterase (P06276 29-602): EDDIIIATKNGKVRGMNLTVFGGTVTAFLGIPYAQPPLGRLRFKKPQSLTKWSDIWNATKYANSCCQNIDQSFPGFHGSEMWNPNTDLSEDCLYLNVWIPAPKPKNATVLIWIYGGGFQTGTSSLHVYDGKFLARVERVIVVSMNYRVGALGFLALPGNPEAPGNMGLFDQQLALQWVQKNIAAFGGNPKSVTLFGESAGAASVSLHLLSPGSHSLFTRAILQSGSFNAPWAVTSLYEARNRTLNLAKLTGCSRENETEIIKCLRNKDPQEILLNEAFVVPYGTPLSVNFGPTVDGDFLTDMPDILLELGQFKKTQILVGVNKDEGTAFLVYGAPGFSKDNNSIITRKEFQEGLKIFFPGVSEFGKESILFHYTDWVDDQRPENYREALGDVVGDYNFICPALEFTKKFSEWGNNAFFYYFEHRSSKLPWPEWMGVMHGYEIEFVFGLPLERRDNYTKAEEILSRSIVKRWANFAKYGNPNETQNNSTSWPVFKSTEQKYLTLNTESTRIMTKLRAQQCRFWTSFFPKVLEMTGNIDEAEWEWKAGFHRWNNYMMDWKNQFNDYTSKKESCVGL
The target in another assay is T2, MAO-B (Homo sapiens, UniProt P27338).
T2 sequence (P27338 1-520): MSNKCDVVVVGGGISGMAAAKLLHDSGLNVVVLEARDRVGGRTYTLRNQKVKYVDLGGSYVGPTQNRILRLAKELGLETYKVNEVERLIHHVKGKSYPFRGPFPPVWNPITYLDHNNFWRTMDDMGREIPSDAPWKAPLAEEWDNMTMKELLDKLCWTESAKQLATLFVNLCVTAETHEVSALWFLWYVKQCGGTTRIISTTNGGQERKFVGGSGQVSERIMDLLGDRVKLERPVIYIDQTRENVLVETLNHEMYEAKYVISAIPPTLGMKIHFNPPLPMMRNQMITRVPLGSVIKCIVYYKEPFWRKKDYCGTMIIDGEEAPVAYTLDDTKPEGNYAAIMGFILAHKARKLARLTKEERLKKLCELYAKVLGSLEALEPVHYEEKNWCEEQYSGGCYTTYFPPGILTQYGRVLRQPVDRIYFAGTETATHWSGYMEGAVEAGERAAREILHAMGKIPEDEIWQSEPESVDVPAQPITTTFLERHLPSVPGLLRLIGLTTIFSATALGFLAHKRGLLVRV
In words: MAO-B inhibition, in vitro fluorometric method. Conditions: for inhibition at 1000 µM: read-out: MAO-B % inhibition, 10^−3 M; for inhibition at 100 µM: read-out: MAO-B % inhibition, 10^−4 M.

The target of assay [2] is Human acetylcholinesterase (Homo sapiens, UniProt P22303). Put plainly: AChE inhibition, modified Ellman's spectrophotometric method. The conditions noted are these: for inhibition at 1000 µM: read-out: AChE % inhibition, 10^−3 M; for inhibition at 100 µM: read-out: AChE % inhibition, 10^−4 M.
Chain of Human acetylcholinesterase (P22303 32-614): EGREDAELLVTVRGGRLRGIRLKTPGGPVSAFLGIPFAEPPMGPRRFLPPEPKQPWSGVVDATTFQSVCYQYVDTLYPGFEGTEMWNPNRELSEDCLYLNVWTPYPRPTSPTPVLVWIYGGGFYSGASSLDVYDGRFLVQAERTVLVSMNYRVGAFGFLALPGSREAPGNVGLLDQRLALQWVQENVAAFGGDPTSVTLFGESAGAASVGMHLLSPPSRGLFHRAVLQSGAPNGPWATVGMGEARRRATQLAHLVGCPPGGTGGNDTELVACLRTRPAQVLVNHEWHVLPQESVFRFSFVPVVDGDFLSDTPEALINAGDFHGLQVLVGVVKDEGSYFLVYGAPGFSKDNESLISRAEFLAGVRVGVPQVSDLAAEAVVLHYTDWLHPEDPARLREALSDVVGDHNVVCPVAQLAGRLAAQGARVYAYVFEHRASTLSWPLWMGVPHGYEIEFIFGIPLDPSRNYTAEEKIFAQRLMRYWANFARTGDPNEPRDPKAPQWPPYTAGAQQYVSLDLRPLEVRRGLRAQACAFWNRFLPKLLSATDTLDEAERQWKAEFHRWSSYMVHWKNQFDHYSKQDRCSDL
The next assay has as its target beta amyloid 1–42 (Aβ42) (Homo sapiens, UniProt P05067). Put plainly: fluorometric beta amyloid 1–42. Conditions: for inhibition at 0.01 µM / inhibition at 0.1 µM / inhibition at 1 µM / inhibition at 10 µM: read-out: Percent inhibition of beta amyloid 1–42 (Aβ42) peptide aggregation.

Chain of beta amyloid 1–42 (Aβ42) (P05067 672-713): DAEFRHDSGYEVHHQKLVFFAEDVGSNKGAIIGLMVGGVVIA

With `O=C(NCCN1CCOCC1)c1ccc(Cl)cc1` [Moc., moclobemide, reference compound], on MAO-A, the inhibition at 100 µM is 82.1 ± 2.7% and the inhibition at 1000 µM was 94.1 ± 2.8%.

In the case of `C=CCN1CCN(Cc2ccc(C(=O)Nc3nc4cc(OC)ccc4s3)cc2)CC1` [4j, 4-((4-Allylpiperazine-1-yl)methyl)-N-(5-methoxybenzo[d]thiazol-2-yl)benzamide], the half-inhibitory concentration (IC50) in assay [1] was more than 1000 µM; at MAO-B, more than 100 µM; in assay [2], more than 100 µM; against MAO-A, more than 1000 µM. Moreover, the inhibition at 100 µM came to 22.6 ± 0.8% in assay [1], 43.5 ± 0.8% at MAO-B, 47.6 ± 0.8% in assay [2] and 32.9 ± 0.7% on MAO-A. In addition, the inhibition at 1000 µM in assay [1] turned out to be 32.9 ± 0.8%; at MAO-B, 74.5 ± 1.1%; in assay [2], 82.5 ± 1.5%; at MAO-A it was 45.2 ± 0.9%.

For `COc1ccc2sc(NC(=O)c3ccc(CN4CCN(C(C)C)CC4)cc3)nc2c1` [4l, 4-((4-Isopropylpiperazine-1-yl)methyl)-N-(5-methoxybenzo[d]thiazol-2-yl)benzamide], the half-inhibitory concentration (IC50) is more than 1000 µM in assay [1], more than 100 µM against MAO-B, more than 100 µM in assay [2] and more than 1000 µM against MAO-A. Besides, the inhibition at 100 µM in assay [1] was determined as 24.3 ± 0.7%; at MAO-B, 40.7 ± 0.9%; in assay [2], 48.1 ± 0.9%; on MAO-A it was 34 ± 0.9%. Further, the inhibition at 1000 µM in assay [1] turned out to be 38.1 ± 0.9%; at MAO-B it was 77.9 ± 1.4%; in assay [2] it was 81.7 ± 1.3%; at MAO-A, 40.6 ± 0.9%.

As to `CC(C)N1CCN(Cc2ccc(C(=O)Nc3nc4ccccc4s3)cc2)CC1` [4e, N-(Benzo[d]thiazol-2-yl)-4-((4-isopropylpiperazine-1-yl)methyl)benzamide], the IC50 in assay [1] is more than 1000 µM; on MAO-B it was more than 100 µM; in assay [2], more than 100 µM; on MAO-A, more than 1000 µM. Besides, the inhibition at 100 µM was determined as 26.8 ± 0.7% in assay [1], 44.6 ± 0.8% at MAO-B, 46.9 ± 0.8% in assay [2] and 33.8 ± 0.7% at MAO-A. Moreover, the inhibition at 1000 µM in assay [1] was determined as 39.1 ± 0.8%; on MAO-B, 72.7 ± 1.1%; in assay [2], 83.9 ± 1.7%; on MAO-A it was 44.7 ± 0.9%.

For `CN1CCN(Cc2ccc(C(=O)Nc3nc4ccccc4s3)cc2)CC1` [4a, N-(Benzo[d]thiazol-2-yl)-4-((4-methylpiperazine-1-yl)methyl)benzamide], in assay [1], the IC50 was more than 1000 µM, the inhibition at 100 µM was 26.5 ± 0.8% and the inhibition at 1000 µM worked out at 38.6 ± 0.7%. Further, at beta amyloid 1–42 (Aβ42), the half-inhibitory concentration (IC50) stood at 0.256 ± 0.011 µM, the inhibition at 0.01 µM worked out at 47.4 ± 1.1%, the inhibition at 0.1 µM was determined as 70.4 ± 2.8% and the inhibition at 1 µM was determined as 86.4 ± 2.7%. For the same compound, the inhibition at 10 µM on beta amyloid 1–42 (Aβ42) was 91.9 ± 3.1%. The compound further had a half-maximal inhibitory concentration (IC50) against MAO-B of 0.0674 ± 0.0031 µM. Also, in assay [2], the IC50 is 0.0563 ± 0.0025 µM and the inhibition at 1000 µM turned out to be 93.3 ± 1.4%. At MAO-A, the half-maximal inhibitory concentration (IC50) was more than 100 µM, the inhibition at 100 µM was found to be 38.6 ± 0.7% and the inhibition at 1000 µM is 55.3 ± 0.9%.

For `CCN1CCN(Cc2ccc(C(=O)Nc3nc4ccccc4s3)cc2)CC1` [4b, N-(Benzo[d]thiazol-2-yl)-4-((4-ethylpiperazine-1-yl)methyl)benzamide], the IC50 in assay [1] is more than 1000 µM; against MAO-B it was more than 100 µM; in assay [2], more than 100 µM; at MAO-A, more than 1000 µM. Also, the inhibition at 100 µM in assay [1] is 24.4 ± 0.6%; at MAO-B, 42.3 ± 0.8%; in assay [2] it was 47.6 ± 0.8%; at MAO-A it was 36.4 ± 0.8%. For the same compound, the inhibition at 1000 µM worked out at 35.7 ± 0.9% in assay [1], 73.3 ± 1.2% on MAO-B, 85.6 ± 1.3% in assay [2] and 46.5 ± 0.8% on MAO-A.

In the case of `C#CCN1CCN(Cc2ccc(C(=O)Nc3nc4ccccc4s3)cc2)CC1` [4d, N-(Benzo[d]thiazol-2-yl)-4-((4-(prop-2-yn-1-yl)piperazine-1-yl)methyl)benzamide], in assay [1], the IC50 was more than 1000 µM, the inhibition at 100 µM is 28.4 ± 0.9% and the inhibition at 1000 µM was 37.1 ± 0.8%. At beta amyloid 1–42 (Aβ42), the half-inhibitory concentration (IC50) is 0.242 ± 0.0097 µM, the inhibition at 0.01 µM worked out at 36.2 ± 1%, the inhibition at 0.1 µM turned out to be 55.2 ± 1.4% and the inhibition at 1 µM was 81.5 ± 2.5%. Besides, the inhibition at 10 µM at beta amyloid 1–42 (Aβ42) came to 89.8 ± 3%. On MAO-B, this compound yielded a concentration for half-maximal inhibition (IC50) of 0.11 ± 0.0043 µM. For the same compound, in assay [2], the IC50 came out at 0.0896 ± 0.0032 µM and the inhibition at 1000 µM was found to be 91.6 ± 1.3%. Further, on MAO-A, the half-inhibitory concentration (IC50) is more than 100 µM, the inhibition at 100 µM was 39.7 ± 0.9% and the inhibition at 1000 µM turned out to be 57.6 ± 0.9%.

In the case of `COc1ccc2sc(NC(=O)c3ccc(CN4CCN(C)CC4)cc3)nc2c1` [4h, N-(5-Methoxybenzo[d]thiazol-2-yl)-4-((4-methylpiperazine-1-yl)methyl)benzamide], in assay [1], the IC50 is more than 1000 µM, the inhibition at 100 µM amounted to 27 ± 0.7% and the inhibition at 1000 µM was 33.5 ± 0.8%. On beta amyloid 1–42 (Aβ42), the IC50 was found to be 0.296 ± 0.013 µM, the inhibition at 0.01 µM came to 41.8 ± 1%, the inhibition at 0.1 µM worked out at 64.8 ± 1.9% and the inhibition at 1 µM amounted to 83.2 ± 3.3%. Moreover, at beta amyloid 1–42 (Aβ42), the inhibition at 10 µM came out at 90.7 ± 2.9%. This compound also came in with an IC50 at MAO-B of 0.0851 ± 0.0038 µM. Also, in assay [2], inhibition was half-maximal at 0.0649 ± 0.0029 µM (IC50) and the inhibition at 1000 µM came to 92.3 ± 1.1%. Besides, at MAO-A, the IC50 was more than 100 µM, the inhibition at 100 µM is 38.5 ± 0.6% and the inhibition at 1000 µM came out at 60.5 ± 0.9%.

As for `CN(C)CCCN1CCN(Cc2ccc(C(=O)Nc3nc4ccccc4s3)cc2)CC1` [4g, N-(Benzo[d]thiazol-2-yl)-4-((4-(3-(dimethylamino)propyl)piperazine-1-yl)methyl)benzamide], the IC50 in assay [1] is more than 1000 µM; on MAO-B it was more than 100 µM; in assay [2] it was 0.0367 ± 0.0014 µM; on MAO-A, more than 100 µM. Besides, the inhibition at 100 µM is 30.9 ± 0.8% in assay [1], 42.5 ± 0.9% at MAO-B and 40.1 ± 0.9% on MAO-A. Moreover, the inhibition at 1000 µM in assay [1] amounted to 41.5 ± 0.8%; at MAO-B, 74.2 ± 1%; in assay [2], 94.3 ± 1%; on MAO-A, 64.9 ± 1.1%.

In the case of `C=CCN1CCN(Cc2ccc(C(=O)Nc3nc4ccccc4s3)cc2)CC1` [4c, 4-((4-Allylpiperazine-1-yl)methyl)-N-(benzo[d]thiazol-2-yl)benzamide], the IC50 in assay [1] is more than 1000 µM; on MAO-B it was more than 100 µM; in assay [2] it was more than 100 µM; at MAO-A, more than 1000 µM. Besides, the inhibition at 100 µM in assay [1] worked out at 20.2 ± 0.7%; at MAO-B, 40.3 ± 0.9%; in assay [2] it was 48.2 ± 0.9%; on MAO-A, 34.6 ± 0.8%. In addition, the inhibition at 1000 µM in assay [1] was 30.9 ± 0.7%; at MAO-B, 69.6 ± 1.2%; in assay [2], 82.8 ± 1.5%; on MAO-A, 48.3 ± 0.9%.

`COc1ccc2sc(NC(=O)c3ccc(CN4CCN(CCCN(C)C)CC4)cc3)nc2c1` [4n, 4-((4-(3-(Dimethylamino)propyl)piperazine-1-yl)methyl)-N-(5-methoxybenzo[d]thiazol-2-yl)benzamide]: the concentration for half-maximal inhibition (IC50) was more than 1000 µM in assay [1], more than 100 µM at MAO-B, 0.0421 ± 0.0018 µM in assay [2] and more than 100 µM against MAO-A. Moreover, the inhibition at 100 µM in assay [1] came to 30.4 ± 0.9%; at MAO-B, 41 ± 0.9%; at MAO-A, 38.8 ± 0.7%. In addition, the inhibition at 1000 µM was 40.9 ± 0.9% in assay [1], 70.3 ± 1.3% at MAO-B, 95.3 ± 1.7% in assay [2] and 60.1 ± 0.8% at MAO-A.

As to `CCN1CCN(Cc2ccc(C(=O)Nc3nc4cc(OC)ccc4s3)cc2)CC1` [4i, 4-((4-Ethylpiperazine-1-yl)methyl)-N-(5-methoxybenzo[d]thiazol-2-yl)benzamide], the IC50 in assay [1] is more than 1000 µM; on MAO-B, more than 100 µM; in assay [2] it was more than 100 µM; against MAO-A, more than 1000 µM. For the same compound, the inhibition at 100 µM was found to be 25.2 ± 0.9% in assay [1], 41.7 ± 0.9% on MAO-B, 48 ± 0.9% in assay [2] and 30.6 ± 0.7% on MAO-A. In addition, the inhibition at 1000 µM in assay [1] worked out at 39.8 ± 0.9%; on MAO-B, 75.6 ± 1.2%; in assay [2], 86.9 ± 1.2%; at MAO-A, 43.8 ± 0.9%.
